We go through seven compounds from patent US4233303A, “Xanthine derivatives” (priority 1977, dated 1980).

Entries after “also recorded” stand apart in the source; their conditions may differ. Like-named read-outs stand apart in the source and are kept apart here. Where only a bound is given, the exact number is not on record here.

Experiment [1] concerns actively sensitized rat (anaphylactic bronchospasm). The experiment in a line: Active lung anaphylaxis in the rat (increase in intratracheal pressure after ovalbumin). Particulars: for Increase in intratracheal pressure (+ΔP): 1 min before ovalbumin, mean ± S.E.M.; for ED50: Rattus norvegicus, iv; for doses needed for protective effect / protective effect against anaphylactic bronchospasm (words, conclusion): actively sensitized rat; for protective effect against anaphylactic bronchospasm (words, conclusion): theophylline 0.010-2.5 mg/kg, disodiumcromoglicate 0.1-5.0 mg/kg; for effect on the increase of the intratracheal pressure / concentrations showing inhibition of the anaphylactic bronchospasm / maximum inhibition of the anaphylactic bronchospasm: 1 minute before ovalbumin. Type of experiment: in vivo, Sprague Dawley (printed "Spargue Dawley").
Method: The antianaphylactic effect was tested on actively sensitized laboratory animals.
The active sensitization of the animals was achieved by injecting ovalbumin, a protein. This administration makes the animals hypersensitive to subsequent challenge of ovalbumin with bronchoconstriction as a consequence. The antianaphylactic effect of the test compounds was tested in vivo by exposing the actively sensitized animals to ovalbumin and measuring the protective effect of test substance on the intratracheal pressure.
Rats, Spargue Dawley, 250 g, were sensibilized by 1.0 mg ovalbumin (Sigma) and 200 mg Al(OH)3 gel suspended in 1.0 ml saline. This suspension was administered subcutaneously at 2 sites (0.5 ml/site) on the abdominal side. This procedure was done with the animals lightly anesthetized by Mebumal. 18-26 days later the animals were used in the provocation experiments
The animal was anesthetized by i.p. injection of Mebumal, 50 mg/kg i.p. The trachea was cannulated and the animals was ventilated by a pump (Braun). The frequency of respiration was about 80 beats/min. The intratracheal pressure was measured by a Statham pressure transducer (P23AC). The normal pressure variations were 0- cm H2 O.
To inhibit spontaneous respiration there was need for Curare 0.8 mg/kg i.v. Alongside with the respiratory measurements the heart rate and arterial blood pressure was measured by a Statham pressure transducer connected with a. carotis. The blood pressure, pulse rate and intratracheal pressure were registered by means of a Grass polygraph.
Bronochoconstriction was induced by 5HT, 4-5 injections in v. jugularis of a standard dose. After that a single dose of ovalbumin, 5 mg, was administered. Test compound was administered 1 min before the challenging dose of ovalbumin. Because of desensitization towards the antigen (ovalbumin) this could only be administered once in each animal.
Calculation of anaphylactic bronchoconstriction
The maximum increase of the intratracheal pressure caused by ovalbumin was measured and this was expressed as the percentage increase of the intratracheal pressure. Comparisons were made between a group of control animals not treated with test compound and groups of animals treated with different doses of test compound.
They were initially dissolved in 0.8 ml NaOH (0.5 M) and 9.2 ml saline. This stock solution of compound, 10 mg/ml, was diluted further with saline if necessary. […] The compound was dissolved in saline.

Experiment [2] concerns basophil leucocytes and isolated lung tissue. Particulars: cited from earlier work.
Where [3] appears, read: read-out: ED 50 values (50% protection against the anaphylactic bronchospasm), i.v., extrapolated.
Where [4] appears, read: read-out: Extrapolated intravenous dose for 50% protection (ED 50), i.v., Table VIII.

On to `Cc1nc2c([nH]1)c(=O)n(C)c(=O)n2CC(C)O` (stereo not drawn) [D 4086, 3,7-dihydro-1,8-dimethyl-3-(2-hydroxypropyl)-1H-purine-2,6-dione], for which the “Increase in intratracheal pressure (+ΔP)” value in experiment [1] (0.100 mg/kg i.v.) is 26 ± 6%; in experiment [1] (0.250 mg/kg i.v.), 14 ± 3%; in experiment [1] (0.500 mg/kg i.v.), 2 ± 1%. Moreover, the ED50 in experiment [1] (setting [3]) is 0.1 to 0.27 mg/kg; in experiment [1] (setting [4]), 0.12 mg/kg. The “doses needed for protective effect” value in experiment [1] (i.v.) is 0.01 to 1.0 mg/kg. The “protective effect against anaphylactic bronchospasm (words, conclusion)” value (from here on “protective effect … (words, conclusion)”) in experiment [1] was “show protective effect”. Moreover, in experiment [1] (i.v.), the “effect on the increase of the intratracheal pressure” value (from here on “effect on the increase”) is reported as “diminished the increase of the intratracheal pressure”.

Consider `Cc1nc2c([nH]1)c(=O)n(C)c(=O)n2C1CCCC1` [D 4136, 3-cyclopentyl-3,7-dihydro-1,8-dimethyl-1H-purine-2,6-dione], for which the “Increase in intratracheal pressure (+ΔP)” value in experiment [1] (0.025 mg/kg i.v.) is reported as 36 ± 4%; in experiment [1] (0.100 mg/kg i.v.) it was 55%; in experiment [1] (1.00 mg/kg i.v.), 27 ± 4%. Further, in experiment [1] (setting [4]), the ED50 is 0.13 mg/kg. Besides, the “doses needed for protective effect” value in experiment [1] (i.v.) fell in the range of 0.01 to 1.0 mg/kg. Moreover, the “protective effect … (words, conclusion)” value in experiment [1] is “show protective effect”. Besides, the “effect on the increase” value in experiment [1] (i.v.) is listed as “diminished the increase of the intratracheal pressure”.

In the case of `Cc1nc2c([nH]1)c(=O)n(C)c(=O)n2-c1ccccc1` [D 4026, 3,7-dihydro-1,8-dimethyl-3-phenyl-1H-purine-2,6-dione], the “Increase in intratracheal pressure (+ΔP)” value in experiment [1] (0.010 mg/kg i.v.) is 33 ± 6%. Further, the “Increase in intratracheal pressure (+ΔP)” value in experiment [1] (0.100 mg/kg i.v.) is given as 7 ± 2%. Besides, the “Increase in intratracheal pressure (+ΔP)” value in experiment [1] (0.500 mg/kg i.v.) stood at 9 ± 5%. For the same compound, in experiment [1] (setting [3]), the ED50 was less than 0.1 mg/kg. Also, the ED50 in experiment [1] (setting [4]) is 0.016 mg/kg. In addition, in experiment [1] (i.v.), the “doses needed for protective effect” value was in the range of 0.01 to 1.0 mg/kg, the “concentrations showing inhibition of the anaphylactic bronchospasm” value (“concentrations showing inhibition” for short) lay within 0.01 to 0.10 mg/kg, the “effect on the increase” value is “diminished the increase of the intratracheal pressure” and the “maximum inhibition of the anaphylactic bronchospasm” value (“maximum inhibition” below) is “about 87%”. For the same compound, in experiment [1], the “protective effect … (words, conclusion)” value is on record as “show protective effect”.

In the case of `O=C(O)c1cc(=O)c2c(OCC(O)COc3cccc4oc(C(=O)O)cc(=O)c34)cccc2o1` [disodiumcromoglicate, reference compound], the figures for the “Increase in intratracheal pressure (+ΔP)” value in experiment [1] (0.100 mg/kg i.v.), in experiment [1] (1.00 mg/kg i.v.) and in experiment [1] (5.0 mg/kg i.v.) were 46 ± 7%, 22 ± 8% and 46 ± 6%, respectively. For the same compound, the “ED 50 result in words (dose-response shape)” value in experiment [1] (i.v.) is “bell shaped curves which made it impossible to calculate ED 50 values; also recorded: bell-shaped curve”.

On to `CCCn1c(=O)c2[nH]c(C)nc2n(CC(C)O)c1=O` (stereo not drawn) [D 4122, 3,7-dihydro-3-(2-hydroxypropyl)-8-methyl-1-propyl-1H-purine-2,6-dione], for which the “Increase in intratracheal pressure (+ΔP)” value in experiment [1] (0.010 mg/kg i.v.) is reported as 34 ± 4%. In experiment [1] (0.100 mg/kg i.v.), the “Increase in intratracheal pressure (+ΔP)” value turned out to be 23 ± 5%. In addition, the “Increase in intratracheal pressure (+ΔP)” value in experiment [1] (1.00 mg/kg i.v.) came to 18 ± 4%. In addition, the ED50 in experiment [1] (setting [3]) is less than 0.1 mg/kg. Moreover, the ED50 in experiment [1] (setting [4]) was 0.01 mg/kg. Moreover, in experiment [1] (i.v.), the “doses needed for protective effect” value is 0.01 to 1.0 mg/kg, the “concentrations showing inhibition” value fell in the range of 0.01 to 1.00 mg/kg, the “effect on the increase” value is listed as “diminished the increase of the intratracheal pressure” and the “maximum inhibition” value is listed as 79%. The “protective effect … (words, conclusion)” value in experiment [1] is recorded as “show protective effect”.

Turning to `Cn1c(=O)c2[nH]cnc2n(C)c1=O` [theophylline], in experiment [2], the “inhibition of the anaphylactic release of histamine” value is “capable of inhibiting the anaphylactic release of histamine”.

With `CCn1c(=O)c2[nH]c(C)nc2n(CC2CCCCC2)c1=O` [D 4139, 3,7-dihydro-1-ethyl-8-methyl-3-cyclohexylmethyl-1H-purine-2,6-dione], the “Increase in intratracheal pressure (+ΔP)” value in experiment [1] (0.010 mg/kg i.v.) worked out at 74 ± 22%. Also, the “Increase in intratracheal pressure (+ΔP)” value in experiment [1] (0.05 mg/kg i.v.) came out at 50 ± 26%. In addition, in experiment [1] (0.100 mg/kg i.v.), the “Increase in intratracheal pressure (+ΔP)” value came to 35 ± 9%. Moreover, in experiment [1] (setting [3]), the ED50 is less than 0.1 mg/kg. Besides, in experiment [1] (setting [4]), the ED50 was 0.04 mg/kg. In experiment [1] (i.v.), the “doses needed for protective effect” value was 0.01 to 1.0 mg/kg, the “concentrations showing inhibition” value was 0.01 to 0.10 mg/kg, the “effect on the increase” value was “diminished the increase of the intratracheal pressure” and the “maximum inhibition” value is 68%. For the same compound, the “protective effect … (words, conclusion)” value in experiment [1] was “show protective effect”. Moreover, the “ED 50 values (50% protection against the anaphylactic bronchospasm)” value in experiment [1] (i.v., extrapolated) was 0.10 to 0.27 mg/kg.
